Test results from publication PMC3510438, “The transmembrane tyrosines Y56, Y91 and Y167 play important roles in determining the affinity and transport rate of the rabbit proton-coupled peptide transporter PepT1” (The International Journal of Biochemistry & Cell Biology, 2009).
Residue numbers refer to the chain shown, from its start.

Assays:
Assay in all cases: Uptake of tracer [3H]-D-Phe-L-Gln into Xenopus oocytes
Assay type in all cases: cell-based, rabbit
wild-type rPepT1 = molecular target: T1, wild-type rPepT1 (Oryctolagus cuniculus, UniProt P36836); conditions: 0.4 μM tracer; pHout 5.5; 1 h; non-injected control subtracted
T1 construct: expressed in transfected cells; host or cells: Xenopus laevis oocytes injected with cRNA
T1 sequence (P36836 1-707): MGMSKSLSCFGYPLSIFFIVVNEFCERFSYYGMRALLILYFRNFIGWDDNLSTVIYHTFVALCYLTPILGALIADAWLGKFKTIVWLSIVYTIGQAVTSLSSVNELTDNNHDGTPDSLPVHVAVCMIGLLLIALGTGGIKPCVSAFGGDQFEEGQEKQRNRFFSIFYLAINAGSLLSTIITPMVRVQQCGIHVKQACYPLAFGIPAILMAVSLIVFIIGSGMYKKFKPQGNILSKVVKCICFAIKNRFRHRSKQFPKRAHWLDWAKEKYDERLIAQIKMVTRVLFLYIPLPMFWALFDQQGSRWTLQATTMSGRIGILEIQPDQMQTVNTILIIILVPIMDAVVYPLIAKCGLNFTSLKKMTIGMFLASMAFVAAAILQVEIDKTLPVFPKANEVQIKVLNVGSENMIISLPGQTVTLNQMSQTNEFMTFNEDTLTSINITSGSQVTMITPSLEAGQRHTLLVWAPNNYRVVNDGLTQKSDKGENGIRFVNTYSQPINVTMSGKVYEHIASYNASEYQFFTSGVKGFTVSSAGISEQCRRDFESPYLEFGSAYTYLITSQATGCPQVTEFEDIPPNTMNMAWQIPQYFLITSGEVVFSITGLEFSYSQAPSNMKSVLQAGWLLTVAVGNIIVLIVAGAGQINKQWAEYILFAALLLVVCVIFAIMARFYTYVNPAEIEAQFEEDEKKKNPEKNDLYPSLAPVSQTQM
Experimental: (§1) rPepT1 constructs were linearised with XbaI (New England Biolabs, UK) and cRNA generated by in vitro transcription (T7 mMessage mMachine, Ambion, Cambridgeshire, UK). Xenopus laevis oocytes were obtained under MS222 anaesthesia (0.2%, w/v) in accordance with the UK Animals (Scientific Procedures) Act, 1986, and maintained at 18 °C in modified Barth's medium (88 mM NaCl, 1 mM KCl, 0.82 mM MgSO4, 2.4 mM NaHCO3, 0.42 mM CaCl2, 10 mM Hepes, 5 mM sodium pyruvate, 50 μg ml^−1 gentamicin (Fluka, Poole, UK), adjusted to pH 7.6 with 1 M NaOH). Transport measurements were performed at least 72 h after micro-injection of oocytes with 27nl cRNA (1 μg/μl), with medium changed daily.
(§2) Uptake of [^3H]-D-Phe-L-Gln (17.4 Ci/mmole, custom synthesised, Cambridge Research Biochemicals, Stockton-on-Tees, UK) was performed as previously described ([Meredith, 2004]). Briefly, 5 oocytes were incubated in 100 μl of uptake medium (95 mM NaCl, 2 mM KCl, 1 mM CaCl2, 0.42 mM MgCl2, 10 mM Tris/Hepes pH 7.4 or Tris/Mes pH 5.5) with tracer (0.4 μM) [^3H]-D-Phe-L-Gln. After incubation, the oocytes were washed sequentially five times in 1 ml of ice-cold 120 mM NaCl solution, lysed individually with 100 μl 2% (w/v) SDS and liquid scintillation counted. As a control non-injected oocytes were also incubated in uptake medium with D-Phe-L-Gln as above.

T58Y-rPepT1 = molecular target: T2, T58Y-rPepT1 (Oryctolagus cuniculus, UniProt P36836, T58Y); conditions: both pHout 5.5 and 7.4
T2 construct: expressed in transfected cells; host or cells: Xenopus laevis oocytes injected with cRNA
T2 sequence (P36836 1-707 T58Y): T1 sequence (P36836 1-707) with T58Y
Experimental: as §1, §2

Y167F-rPepT1 = molecular target: T3, Y167F-rPepT1 (Oryctolagus cuniculus, UniProt P36836, Y167F)
T3 construct: expressed in transfected cells; host or cells: Xenopus laevis oocytes injected with cRNA
T3 sequence (P36836 1-707 Y167F): T1 sequence (P36836 1-707) with Y167F
Experimental: as §1, §2

## [^3H]-D-Phe-L-Gln
wild-type rPepT1
  uptake: 342 ± 37 fmol peptide/(oocyte h)
T58Y-rPepT1
  reduction of transport function compared to the wild-type: > 70%
Y167F-rPepT1; both pHout 5.5 and 7.4
  reduction of uptake compared to the wild-type: > 90%
Y167F-rPepT1; pHout 5.5, 1 h
  decrease in rate of uptake compared to the wild-type: ~90%
